In article PMC13081163, “Discovery of a novel Nrf2 activator that modulates mitochondrial function in neurons by regulating DHRS3-Nrf2 interaction after ischemic stroke” (Theranostics, 2026):

Tests used:
[1] = 28-day long-term toxicity in rats (intragastric); format: in vivo, rat; details: 28 days intragastric; Oma 10 mg/kg, Cpd.51 1, 3 and 10 mg/kg
Experimental: During the long-term toxicity test, rats in each group received daily intragastric administration for 28 consecutive days. Animals in the Sham group were administered a mixture of 99% sesame oil and 1% DMSO at a volume of 0.5 mL per rat. Rats in the remaining groups were intragastrically administered varying doses of the respective therapeutic agents.
During the 28-day long-term toxicity study, rats were euthanized following the completion of continuous intragastric administration. Livers and kidneys from both male and female rats in each group were photographed for macroscopic examination, and serum samples were collected for subsequent kit-based analysis. The liver/kidney index was obtained by dividing the weight of the liver/kidney by the body weight.

[2] = Pharmacokinetics in male rats (LC-MS/MS); format: in vivo; details: SD, rat, plasma
[3] = Microsomal metabolic stability, human; format: in vitro ADME; details: human liver microsomes
Experimental: (§1) The liver microsomal incubation system comprised human, dog, or rat liver microsomal protein (0.75 mg/mL), nicotinamide adenine dinucleotide phosphate (NADPH) generation system, potassium phosphate buffer (0.1 M, pH 7.4), substrate, and inhibitor. The assay was conducted by first preparing a potassium phosphate buffer. Compounds and liver microsomes were then diluted and pre-incubated at 37 °C before initiating the reaction with NADPH. Aliquots were quenched with acetonitrile containing internal standard at specified time points. After sample processing (shaking and centrifugation), the supernatants were analyzed by LC-MS/MS to determine metabolic stability.

tMCAO rats = assay: Long-term recovery after tMCAO (survival, body weight, behaviour); format: in vivo, rat; details: 5 mg/kg tail vein injection for 7 d
Experimental: To assess the degree of neurological impairment, we conducted modified Neurological Severity Score (mNSS) according to previous experience. The investigator was blinded to the grouping situation during the whole experiment.
On postoperative day 3 two wooden boards of identical size were joined at a 30° angle, with a narrow gap retained at the junction. The rat was positioned facing the apex of the angle. When it advanced into the deeper part of the angle, bilateral whisker contact with the boards triggered a characteristic rearing response, followed by a turn to face the opposite direction. Each rat underwent 15 trials, and the number of right turns was recorded. The higher the right-turn ratio, the more severe the injury.
Rats were placed on a horizontal, stainless steel wire grid. The grid was then smoothly rotated 180 degrees to an inverted position and held stationary at a height of 0.8 m. A stopwatch was started immediately upon inversion to measure the latency to fall. The test was terminated if the animal remained on the grid for 60 s, at which point it was gently returned to its home cage, and a score of 60 s was recorded.
The Y-maze apparatus consisted of three symmetrically arranged enclosed arms (typically labeled Arms A, B, and C), each positioned 120° apart. At the start of each trial, the subject was placed in Arm A and allowed to move freely through the maze for 8 min. Spatial working memory was evaluated by calculating the spontaneous alternation rate, using the following formula:
Following a 2 h acclimation period, the rats were within an open field cubic box (100 × 100 × 40 cm^3) and allowed 5 min of unrestricted movement. The travel distance and the time spent in the central area were recorded.
The spatial learning and memory of rats were assessed using the Morris water maze (MWM) from post-operative days 23 to 26. Over four consecutive days, animals underwent training trials in which they were required to locate a submerged escape platform within 60 s. Each rat was gently placed into the water facing the pool wall. If the rat found the platform and remained on it for 10 s, the escape latency was recorded. If the platform was not found within 60 s, the rat was guided onto it and allowed to stay for 10 s, and the latency was recorded as 60 s. Following the training phase, the platform was removed, and a visual spatial memory test lasting for 60 s was conducted to assess the retention of memory. The number of platform-location crossings and the time spent in the target quadrant were recorded and analyzed.

[4] = Pharmacokinetics in male rats (LC-MS/MS); format: in vivo; details: SD, rat, plasma, iv, 5 mg/kg
Experimental: Male SD rats were intravenous injection with Cpd.51, blood and brain tissues were collected 15 min, 1 h, 4 h, 6 h, 8 h and 24 h after drug administration. Samples were measured by a Shimadzu chromatography system (Shimadzu, Kyoto, Japan) coupled with an AB Sciex triple quadrupole 4500 mass spectrometer (SCIEX Triple Quad™ 4500 LC-MS/MS, Applied Biosystems Sciex, Ontario, Canada) using Analyst 1.4.2 software. A HPLC column (ACQUITY UPLC BEH C18, 2.1 × 50 mm, 1.7 μm) were used. Protein precipitation method was used for detection: 50 μL plasma sample or brain homogenate sample were added with 200 μL acetonitrile containing internal standard for precipitation, then vortexed for 3 min. The supernatant was injected into system for analysis after centrifugation.

[5] = tested on: SH-SY5Y cells and primary cortical neuron cells; assay: Mitochondrial function in the OGD/R model (JC-1, Calcein-AM, DCFH-DA, ATP); format: cell-based
Experimental: Experiment two: mitochondrial ATP levels were assayed using ATP assay kit (S0027, Beyotime, China) according to the manufacturer's protocols. The cells were cultured by placing them in six-well plates as described in the "Cell culture and drug administration in vitro" method. Subsequently, 200 uL of lysate was added into the hole and supernatants were collected (4 °C, 12000 g, 5 min). 100 uL supernatants cultured with 100 µL probe of ATP, and the RLU was measured by a luminometer.
Assay of ROS generation production: cellular ROS were examined using an ROS Assay Kit (S0033S, Beyotime, China). Cells were incubated with DCFH-DA for 20 min at 37 °C in the dark, and then washed three times with PBS. The fluorescence intensity was measured by Laser Scanning Confocal Microscope (CLSM; ZEISS LSM 800, Germany).
Mitochondrial membrane potential (MMP) and MPTP assessment: MMP changes were measured by a mitochondrial membrane potential assay kit with JC-1 (C2003S, Beyotime, China) according to the manufacturer's instructions. Higher ratios of red to green fluorescence were correlated with higher mitochondrial membrane polarization. In addition, MPTP opening was assessed by Calcein-AM assays (Y237214-1mg, Beyotime, China). […] For detailed instructions, please refer to the manual.

[6] = In vitro hepatic microsomal stability, overall statement; format: in vitro ADME, human, dog, rat
Experimental: as §1

CC1(C)CCC2(C(=O)NO)CCC3(C)C(C(=O)C=C4C5(C)C=C(C#N)C(=O)C(C)(C)C5CCC43C)C2C1 (stereo not shown) [Cpd.51]
body weight [1]: neither compound significantly affected body weight
plasma markers of hepatic and renal injury [1]: showed no such effects at any dose tested
half-life ([2]; 30 mg/kg, i.g. (oral)): 6.36 h
half-life ([2]; iv, 5 mg/kg): 1.49 ± 0.31 h
AUC(0-t) ([2]; po, 30 mg/kg, i.g.): 0.685 ± 0.111 µg·h/mL
Cmax ([2]; po, 30 mg/kg, i.g.): 0.124 ± 0.037 µg/mL
MRT last ([2]; po, 30 mg/kg, i.g.): 5.17 ± 0.72 h
bioavailability ([2]; po, 30 mg/kg, i.g., read-out: F (oral bioavailability)): 11.5%
Remainig (%, t = 60 min) [3]: 28.9%
CLint scaled ([3]; human, pH 7.4): 2.04 L/h/kg
half-life ([3]; human, pH 7.4): 0.612 h
Morris water maze, spatial learning and memory (tMCAO rats): only a modest capacity to improve these cognitive functions
body weight and mNSS scores, long-term (tMCAO rats): significantly improved body weight and mNSS scores
mortality after tMCAO (tMCAO rats): reduced mortality
corner, inverted screen, Y maze and open field tests (tMCAO rats; vs model group): exhibited improvements in neurological deficits, motor abilities, and spatial working and reference memory
AUC(0-t) [4]: 0.991 ± 0.07 µg·h/mL
C0 [4]: 3.41 ± 0.045 µg/mL
Cmax [4]: 2.12 ± 0.075 µg/mL
MRT last [4]: 0.843 ± 0.054 h
clearance ([4]; i.v., read-out: CL_obs (converted)): 5.01 L/h/kg
mitochondrial membrane potential (JC-1) [5]: enhanced mitochondrial membrane potential
mitochondrial permeability (MPTP, Calcein AM) [5]: reduced mitochondrial permeability
ATP production ([5]; SH-SY5Y cells): increased ATP production
reactive oxygen species production (DCFH-DA) ([5]; SH-SY5Y cells): decreased reactive oxygen species production
metabolic stability in microsomes [6]: moderate metabolic stability
